Results as given in patent US8853359B2, “Endokinin C/D-derived peptides” (University of Miyazaki, priority 2009, dated 2014).

Legend:
Assay type in all cases: in vivo, rat
[1] = tested on: carrageenan-induced inflammation; assay: carrageenan-induced increase in paw size after intrathecal pre-administration of peptide
Procedure: In Example 6, 10^−3M (10 nmol/10 μl) D-EKC/D (3), (5), or (7), Spantide I, or saline (10 μl) was administered to intrathecally catheterized rats via catheters. Four hours later, 100 μl of 2% carrageenan (2 mg/100 μl) was subcutaneously administered to rat plantar.
Paw size was measured with time for 60 minutes after carrageenan administration. The paw size (control) before carrageenan administration was designated as the basal level, and the increases in paw size were then calculated.

[2] = tested on: formalin-induced pain behavior; assay: formalin-induced pain behavior (flinching) after intrathecal pre-administration of peptide
Procedure: In Example 5, 10^−3M (10 nmol/10 μl) D-EKC/D (3), (5), or (7), Spantide I, or saline (10 μl) was administered to intrathecally catheterized rats via catheters and then 4 hours later, 50 μl of 2% formalin was administered subcutaneously to hind paws of rats. The number of flinching (pain behavior) was determined for 60 minutes after formalin administration, so that the degree of pain could be evaluated. During the 10-minute period after formalin administration (referred to as phase I), pain behavior was measured once every 2 minutes (1 minute per measurement). During the period from 10 minutes to 60 minutes after formalin administration (referred to as phase II), pain behavior was measured once every 5 minutes (1 minute per measurement), so that the degree of pain could be evaluated. During phase I, behavior (phasic pain) resulting from chemical stimulation accompanying formalin administration was observed. During phase II, tonic pain following the phasic pain was observed.
The horizontal axis indicates time (minutes) after formalin administration and the vertical axis indicates the measured number of pain behavior per minute.

[3] = tested on: SP-induced thermal hyperalgesia; assay: SP-induced thermal hyperalgesia (withdrawal latency) after intrathecal pre-administration of peptide; conditions: 10^-3M (10 nmol/10 μl) peptide intrathecal, FIG. 7
From the text: In this test, the effects of intrathecal pre-administration with D-EKC/D (1), (2), and (3) on the induction of thermal hyperalgesia following intrathecal administration of SP were confirmed using as an index thermal hyperalgesia, which is one type of pain-related behavior. The effects can be evaluated based on withdrawal latency period, which is the time required for withdrawal response to take place after application of noxious thermal stimulation to plantar using infrared rays.
In Example 4, 10^−3M (10 nmol/10 μl) D-EKC/D (1), (2), or (3) was administered to intrathecally catheterized rats via catheters, intrathecal administration of 10^−6M (10 pmol/10 μl) SP was performed at 4 hours and at 8 hours after administration of D-EKC/D, the presence or the absence of hyperalgesia following intrathecal administration of SP was evaluated based on the time (latency period) required for withdrawal response to take place, the latency period following SP administration in rats pretreated with D-EKC/D and the latency period resulting from administration of SP alone were compared, and thus the effects of preadministration of D-EKC/D (1), (2), and (3) were evaluated.

[4] = tested on: substance P-induced scratching behavior; assay: substance P-induced scratching behavior after intrathecal pre-administration of test peptide

Substance: Ala-Tyr-Gln-Leu-Glu-His-Thr-Phe-Gln-DTrp-Leu-Leu-NH2 (AYQLEHTFQXLL; HELM PEPTIDE1{A.Y.Q.L.E.H.T.F.Q.[dW].L.L.[am]}$$$$V2.0; N-terminus assumed; SMILES CC(C)C[C@H](NC(=O)[C@H](CC(C)C)NC(=O)[C@@H](Cc1c[nH]c2ccccc12)NC(=O)[C@H](CCC(N)=O)NC(=O)[C@H](Cc1ccccc1)NC(=O)[C@@H](NC(=O)[C@H](Cc1c[nH]cn1)NC(=O)[C@H](CCC(=O)O)NC(=O)[C@H](CC(C)C)NC(=O)[C@H](CCC(N)=O)NC(=O)[C@H](Cc1ccc(O)cc1)NC(=O)[C@H](C)N)[C@@H](C)O)C(N)=O) [D-EKC/D (3)]
- rate of increase of paw sizes ([1]; 10^-3M (10 nmol/10 μl) peptide intrathecal, 2% carrageenan 4 hours later, FIG. 9A): significant decreases
- effects on paw size and withdrawal time compared with Spantide I ([1]; 10^-3M intrathecal, carrageenan 4 hours later): sustained to a greater extent than the effects of Spantide I
- numbers of pain behavior during phase I ([2]; 10^-3M (10 nmol/10 μl) peptide intrathecal, 2% formalin 4 hours later, 0-10 minutes after formalin): significantly decreased
- numbers of pain behavior during phase II ([2]; 10^-3M (10 nmol/10 μl) peptide intrathecal, 2% formalin 4 hours later, 10-60 minutes after formalin): significantly decreased
- suppressing effects on formalin-induced pain behavior compared with Spantide I ([2]; 10^-3M intrathecal, formalin 4 hours later): sustained longer compared with the effects of Spantide I
- effect on latency period following administration of SP ([3]; 10^-6M SP 4 hours later, saline about 20 seconds, SP about 13 seconds): significantly attenuated
- effect on latency period following administration of SP ([3]; 10^-6M SP 8 hours later): significant attenuation
- number of scratching events induced by substance P, relative to control group (saline+SP = 100%) ([4]; 10^-3M (10 nmol/10 μl) peptide intrathecal, 10^-3M SP 30 minutes after peptide, FIG. 1): about 20%
- number of scratching events induced by substance P, relative to control group ([4]; 10^-3M peptide intrathecal, administration interval of 45 minutes, FIG. 1): almost the same effects were exhibited
- suppressive effects on substance P-induced scratching behavior ([4]; Example 1, intervals of 4 hours, 8 hours, and 14 hours between peptide and SP, both 10^-3M): significant suppressive effects
- scratching behavior induced by substance P ([4]; Example 2, FIG. 2, 10^-3M peptide, SP 4 hours after peptide, control about 380 scratching): almost never induced
- suppressive effects on scratching as administration interval is prolonged ([4]; Example 2, FIG. 2, 10^-3M peptide, interval 8 hours and then 14 hours): gradually attenuated
- scratching behavior induced by substance P / suppressive effects ([4]; Example 3, FIG. 3, 10^-3M peptide, SP 4 hours after peptide, control 380 scratching): almost never induced
